Laboratory results taken from ChEMBL document CHEMBL4414594, “Hepatoprotective Tetrahydrobenzocyclooctabenzofuranone Lignans from Kadsura longipedunculata” (2019).
Active and inactive are the calls of the source. The calls are words filed in the database; no cut-off is given here.

These compounds were tested on HepG2 (assay: Hepatoprotective activity against APAP-induced cytotoxicity in human HepG2 cells assessed as cell survival rate at 10 uM incubated for 48 hrs by MTT assay relative to control).
Format: functional

Row | Structure (SMILES) | Activity
1 | COC1=C(OC)C(=O)[C@]23COc4c5c(cc(c42)[C@H](OC(=O)/C=C/c2ccccc2)[C@H](C)[C@@](C)(O)CC3=C1)OCO5 | 37%
2 | COc1c(O)cc2c(c1OC)-c1c(cc(O)c(OC)c1OC)[C@H](OC(=O)c1ccccc1)[C@H](C)[C@H](C)C2 | inactive
3 | COC1=C(OC)C(=O)[C@]23COc4c5c(cc(c42)[C@H](OC(=O)/C=C/c2ccccc2)[C@H](C)[C@](C)(O)CC3=C1)OCO5 | 50.8%
4 | COc1c(O[C@@H]2O[C@H](CO)[C@@H](O)[C@H](O)[C@H]2O)cc2c(c1O)-c1c(cc3c(c1OC)OCO3)[C@H](O)[C@H](C)[C@H](C)C2 | inactive
5 | COC(=O)c1cc(OC)c2c(c1-c1c(CO)cc(OC)c3c1OCO3)OCO2 [BICYCLOL] | 49%

These compounds were tested on Peritoneal macrophage (assay: Antiinflammatory activity in C57BL/6J mouse peritoneal macrophages assessed as inhibition of LPS-induced nitric oxide production at 10 uM incubated for 24 hrs in presence of LPS by Griess test relative to control).
Format: functional

Row | Structure (SMILES) | inhibition at 10 µM [%]
6 | C/C=C/c1ccc(O[C@H](C)[C@@H](O)c2cc(O)c(OC)c(OC)c2)c(OC)c1 | 89.8
7 | COC1=C(OC)C(=O)[C@]23COc4c5c(cc(c42)[C@H](OC(=O)/C=C/c2ccccc2)[C@H](C)[C@](C)(O)CC3=C1)OCO5 | 74.9
8 | C/C=C(/C)C(=O)O[C@H]1c2cc(O)c(O[C@@H]3O[C@H](CO)[C@@H](O)[C@H](O)[C@H]3O)c3c2[C@@]2(CO3)C(=O)C(OC)=C(OC)C=C2C[C@@H](C)[C@H]1C | 55.1
